The record followed here is patent US7135466B2 (Kirin Beer Kabushiki Kaisha, priority 1999, dated 2006).

Structures are written as SMILES.

The first test deals with T1, c-kit (Homo sapiens, UniProt P10721).
T1 construct: MO7e (human megakaryocytic leukemia cell line) which had been arrested for 20 hr; endogenous in cells; host or cells: MO7e human megakaryocytic leukemia cell line
T1 sequence (P10721 26-976): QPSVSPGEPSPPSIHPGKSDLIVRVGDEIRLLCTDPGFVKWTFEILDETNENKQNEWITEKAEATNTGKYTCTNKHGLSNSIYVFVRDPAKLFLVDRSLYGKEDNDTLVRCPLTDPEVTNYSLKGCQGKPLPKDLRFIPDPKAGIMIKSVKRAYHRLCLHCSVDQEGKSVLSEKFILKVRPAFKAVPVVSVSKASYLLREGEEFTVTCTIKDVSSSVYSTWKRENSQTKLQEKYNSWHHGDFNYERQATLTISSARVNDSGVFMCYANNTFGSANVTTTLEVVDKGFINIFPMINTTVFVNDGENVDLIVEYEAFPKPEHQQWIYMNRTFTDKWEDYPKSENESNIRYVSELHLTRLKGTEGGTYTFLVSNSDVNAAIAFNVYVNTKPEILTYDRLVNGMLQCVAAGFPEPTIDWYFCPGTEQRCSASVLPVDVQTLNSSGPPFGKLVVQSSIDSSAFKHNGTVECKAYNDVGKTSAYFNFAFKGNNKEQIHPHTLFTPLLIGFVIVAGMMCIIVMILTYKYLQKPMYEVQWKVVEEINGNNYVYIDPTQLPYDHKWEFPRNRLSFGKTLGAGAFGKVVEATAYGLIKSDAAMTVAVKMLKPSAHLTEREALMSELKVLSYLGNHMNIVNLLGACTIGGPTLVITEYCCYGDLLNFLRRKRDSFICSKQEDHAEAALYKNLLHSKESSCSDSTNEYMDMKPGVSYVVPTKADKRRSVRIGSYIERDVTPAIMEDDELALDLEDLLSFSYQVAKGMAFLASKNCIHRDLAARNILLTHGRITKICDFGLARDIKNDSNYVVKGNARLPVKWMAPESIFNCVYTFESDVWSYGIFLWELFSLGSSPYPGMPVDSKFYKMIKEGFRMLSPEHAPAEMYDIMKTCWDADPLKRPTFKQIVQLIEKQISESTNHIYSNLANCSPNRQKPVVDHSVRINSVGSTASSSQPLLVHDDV
Description: Inhibitory activity against c-kit autophosphorylation (MO7e cells, h-SCF). Type of test: cell-based. As to conditions: MO7e cells, h-SCF stimulation; read-out: c-kit IC50. The gist of the method:
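In this cellular autophosphorylation assay, compound-treated MO7e cells (1 hr) were challenged with human stem cell factor at 50 ng/ml for 5 min; detection relied on PY-20 capture and anti-c-kit/HRP immunodetection at 450 nm.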
As a reminder, the IC50 is the point on the concentration scale where inhibition reaches its midpoint. As for `CCOc1ccc(C(=O)NC(=S)Nc2ccc(Oc3ccnc4cc(OC)c(OC)cc34)c(F)c2)cc1` [Example 990, N-{4-[(6,7-Dimethoxy-4-quinolyl)oxy]-3-fluorophenyl}-N′-(4-ethoxybenzoyl)thiourea], the IC50 came out at 481 nM.

Regarding `CCOc1ccc(C(=O)NC(=S)Nc2ccc(Oc3ccnc4cc(OC)c(OC)cc34)c(Cl)c2)cc1` [Example 992, N-{3-Chloro-4-[(6,7-dimethoxy-4-quinolyl)oxy]phenyl}-N′-(4-ethoxybenzoyl)thiourea], the IC50 came out at 766 nM. As for `COc1cc2nccc(Oc3ccc(NC(=S)NC(=O)c4ccc(F)cc4F)cc3)c2cc1OC` [Example 1006, N-(2,4-Difluorobenzoyl)-N′-{4-[(6,7-dimethoxy-4-quinolyl)oxy]phenyl}thiourea], the IC50 stood at 181 nM. On to `COc1cc2nccc(Oc3ccc(NC(=S)NC(=O)c4c(F)cccc4F)cc3)c2cc1OC` [Example 1007, N-(2,6-Difluorobenzoyl)-N′-{4-[(6,7-dimethoxy-4-quinolyl)oxy]phenyl}thiourea], for which the IC50 stood at 616 nM. Same read-out and setting: for `COc1cc2nccc(Oc3ccc(NC(=S)NC(=O)c4ccc(Cl)cc4Cl)cc3)c2cc1OC` [Example 1008, N-(2,4-Dichlorobenzoyl)-N′-{4-[(6,7-dimethoxy-4-quinolyl)oxy]phenyl}thiourea] the value was 357 nM. Turning to `COc1ccc(C(=O)NC(=S)Nc2ccc(Oc3ccnc4cc(OC)c(OC)cc34)cc2)cc1OC` [Example 1010, N-(3,4-Dimethoxybenzoyl)-N′-{4-[(6,7-dimethoxy-4-quinolyl)oxy]phenyl}thiourea], the IC50 turned out to be 78 nM. Turning to `COc1cc2nccc(Oc3ccc(NC(=S)NC(=O)c4cc(Cl)cc(Cl)c4)cc3F)c2cc1OC` [Example 1015, N-(3,5-Dichlorobenzoyl)-N′-{4-[(6,7-dimethoxy-4-quinolyl)oxy]-3-fluorophenyl}thiourea], the IC50 came out at 195 nM. In the case of `COc1cc2nccc(Oc3ccc(NC(=S)NC(=O)CCc4ccccc4)c(F)c3)c2cc1OC` [Example 1026, N-{4-[(6,7-Dimethoxy-4-quinolyl)oxy]-2-fluorophenyl}-N′-(3-phenylpropanoyl)thiourea], the IC50 turned out to be 652 nM. In the case of `COc1cc2nccc(Oc3ccc(NC(=S)NC(=O)CCC4CCCC4)c(F)c3)c2cc1OC` [Example 1027, N-(3-Cyclopentylpropanoyl)-N′-{4-[(6,7-dimethoxy-4-quinolyl)oxy]-2-fluorophenyl}thiourea], the IC50 came out at 161 nM. For the molecule `COc1cc2nccc(Oc3ccc(NC(=S)NC(=O)c4ccco4)cc3)c2cc1OC` [Example 1033, N-{4-[(6,7-Dimethoxy-4-quinolyl)oxy]phenyl}-N′-(2-furylcarbonyl)thiourea], the IC50 worked out at 177 nM. `COc1cc2nccc(Oc3ccc(NC(=S)NC(=O)c4ccsc4)cc3)c2cc1OC` [Example 1034, N-{4-[(6,7-Dimethoxy-4-quinolyl)oxy]phenyl}-N′-(3-thienylcarbonyl)thiourea]: the IC50 came to 378 nM.

As for `COc1cc2nccc(Oc3ccc(NC(=S)NC(=O)c4cc(C)oc4C)c(F)c3)c2cc1OC` [Example 1037, N-{4-[(6,7-Dimethoxy-4-quinolyl)oxy]-2-fluorophenyl}-N′-[(2,5-dimethyl-3-furyl)carbonyl]-thiourea], the IC50 amounted to 558 nM. For the molecule `COc1cc2nccc(Oc3ccc(NC(=S)NC(=O)c4sccc4C)c(F)c3)c2cc1OC` [Example 1038, N-{4-[(6,7-Dimethoxy-4-quinolyl)oxy]-2-fluorophenyl}-N′-[(3-methyl-2-thienyl)carbonyl]thiourea], the IC50 worked out at 597 nM. As to `COc1cc2nccc(Oc3ccc(NC(=S)NC(=O)c4cc(C)oc4C)cc3F)c2cc1OC` [Example 1039, N-{4-[(6,7-Dimethoxy-4-quinolyl)oxy]-3-fluorophenyl}-N′-[(2,5-dimethyl-3-furyl)carbonyl]thiourea], the IC50 worked out at 556 nM. Consider `COc1cc2nccc(Oc3ccc(NC(=S)NC(=O)N(C)c4ccccc4)cc3Cl)c2cc1OC` [Example 1053, N-{3-Chloro-4-[(6,7-dimethoxy-4-quinolyl)oxy]phenyl}-{[(methylanilino)carbonyl]amino}methanethioamide], for which the IC50 stood at 178 nM.

Consider `COc1cc2nccc(Oc3ccc(NC(=S)NC(=O)C4CC4)cc3F)c2cc1OC` [Example 1056, N-Cyclopropylcarbonyl-N′-{4-[(6,7-dimethoxy-4-quinolyl)oxy]-3-fluorophenyl}thiourea], for which the IC50 stood at 932 nM. For `COc1cc2nccc(Oc3ccc(NC(=S)NC(=O)C4CC4c4ccccc4)cc3F)c2cc1OC` (stereo not drawn) [Example 1057, N-{4-[(6,7-Dimethoxy-4-quinolyl)oxy]-3-fluorophenyl}-N′-[(2-phenylcyclopropyl)carbonyl]thiourea], the IC50 was 447 nM. As to `COc1cc2nccc(Oc3ccc(NC(=S)NC(=O)C4CC4c4ccccc4)cc3Cl)c2cc1OC` (stereo not drawn) [Example 1059, N-{3-Chloro-4-[(6,7-dimethoxy-4-quinolyl)oxy]phenyl}-N′-[(2-phenylcyclopropyl)carbonyl]thiourea], the IC50 was 550 nM.

As for `COc1cc2nccc(Oc3ccc(NC(=S)NC(=O)C4CCCC4)cc3)c2cc1OC` [Example 1061, N-Cyclopentylcarbonyl-N′-{4-[(6,7-dimethoxy-4-quinolyl)oxy]phenyl}thiourea], the IC50 came to 136 nM.

For `COc1cc2nccc(Oc3ccc(NC(=S)NC(=O)C4CCCCC4)cc3)c2cc1OC` [Example 1062, N-Cyclohexylcarbonyl-N′-{4-[(6,7-dimethoxy-4-quinolyl)oxy]phenyl}thiourea], the IC50 came out at 233 nM. The same measure, in the same setting: with `COc1cc2nccc(Oc3ccc(NC(=S)NC(=O)C4CCCC4)c(F)c3)c2cc1OC` [Example 1063, N-Cyclopentylcarbonyl-N′-{4-[(6,7-dimethoxy-4-quinolyl)oxy]-2-fluorophenyl}thiourea] the figure was 491 nM; with `COc1cc2nccc(Oc3ccc(NC(=S)NC(=O)C4CCCCC4)c(F)c3)c2cc1OC` [Example 1064, N-Cyclohexylcarbonyl-N′-{4-[(6,7-dimethoxy-4-quinolyl)oxy]-2-fluorophenyl}thiourea], 279 nM. Regarding `COc1cc2nccc(Oc3ccc(NC(=S)NC(=O)CCCCl)c(F)c3)c2cc1OC` [Example 1066, N-(4-Chlorobutanoyl)-N′-{4-[(6,7-dimethoxy-4-quinolyl)oxy]-2-fluorophenyl}thiourea], the IC50 came to 279 nM.

In the case of `COc1cc2nccc(Oc3ccc(NC(=S)NC(=O)CCSC)c(F)c3)c2cc1OC` [Example 1067, N-{4-[(6,7-Dimethoxy-4-quinolyl)oxy]-2-fluorophenyl}-N′-[3-(methylsulfanyl)propanoyl]thiourea], the IC50 was 449 nM.

Still in this test, the particulars now being: Mo7e, figure in parentheses in −( ); at 1000 nM.
In general, inhibition refers to the share of the control response that was lost under treatment. As to `COc1cc2ncnc(Oc3ccc(NC(=S)NC(=O)c4ccc([N+](=O)[O-])cc4)cc3)c2cc1OC` [Example 987, N-{4-[(6,7-Dimethoxy-4-quinazolinyl)oxy]phenyl}-N′-(4-nitrobenzoyl)thiourea], the inhibition at 1 µM was 32%. Still for that read-out and setting: with `COc1ccc(C(=O)NC(=S)Nc2ccc(Oc3ncnc4cc(OC)c(OC)cc34)cc2)cc1` [Example 988, N-{4-[(6,7-Dimethoxy-4-quinazolinyl)oxy]phenyl}-N′-(4-methoxybenzoyl)thiourea] the figure was 33%; with `CCc1ccc(C(=O)NC(=S)Nc2ccc(Oc3ccnc4cc(OC)c(OC)cc34)cc2F)cc1` [Example 993, N-{4-[(6,7-Dimethoxy-4-quinolyl)oxy]-2-fluorophenyl}-N′-(4-ethylbenzoyl)thiourea], 35%; with `COc1cc2nccc(Oc3ccc(NC(=S)NC(=O)c4ccc(Cl)cc4Cl)c(F)c3)c2cc1OC` [Example 1011, N-(2,4-Dichlorobenzoyl)-N′-{4-[(6,7-dimethoxy-4-quinolyl)oxy]-2-fluorophenyl}thiourea], 20%. Turning to `COc1cc2nccc(Oc3ccc(NC(=S)NC(=O)c4c(Cl)cccc4Cl)c(F)c3)c2cc1OC` [Example 1012, N-(2,6-Dichlorobenzoyl)-N′-{4-[(6,7-dimethoxy-4-quinolyl)oxy]-2-fluorophenyl}thiourea], the inhibition at 1 µM was determined as 24%. Consider `COc1cc2nccc(Oc3ccc(NC(=S)NC(=O)c4ccc(F)cc4F)cc3F)c2cc1OC` [Example 1013, N-(2,4-Difluorobenzoyl)-N′-{4-[(6,7-dimethoxy-4-quinolyl)oxy]-3-fluorophenyl}thiourea], for which the inhibition at 1 µM was 22%. As for `COc1cc2nccc(Oc3ccc(NC(=S)NC(=O)c4ccc(Cl)cc4Cl)cc3F)c2cc1OC` [Example 1014, N-(2,4-Dichlorobenzoyl)-N′-{4-[(6,7-dimethoxy-4-quinolyl)oxy]-3-fluorophenyl}thiourea], the inhibition at 1 µM was 30%.

Consider `COc1cc2nccc(Oc3ccc(NC(=S)NC(=O)c4c(F)cccc4F)cc3Cl)c2cc1OC` [Example 1020, N-{3-Chloro-4-[(6,7-dimethoxy-4-quinolyl)oxy]phenyl}-N′-(2,6-difluorobenzoyl)thiourea], for which the inhibition at 1 µM stood at 11%.

Regarding `COc1cc2ncnc(Oc3ccc(NC(=S)NC(=O)c4ccc(F)cc4F)cc3)c2cc1OC` [Example 1021, N-(2,4-Difluorobenzoyl)-N′-{4-[(6,7-dimethoxy-4-quinazolinyl)oxy]phenyl}thiourea], the inhibition at 1 µM stood at 38%. On the same count and under the same terms, with `COc1cc2nccc(Oc3ccc(NC(=S)NC(=O)c4ccco4)c(F)c3)c2cc1OC` [Example 1035, N-{4-[(6,7-Dimethoxy-4-quinolyl)oxy]-2-fluorophenyl}-N′-(2-furylcarbonyl)thiourea] the figure was 17%; with `COc1cc2nccc(Oc3ccc(NC(=S)NC(=O)c4ccsc4)c(F)c3)c2cc1OC` [Example 1036, N-{4-[(6,7-Dimethoxy-4-quinolyl)oxy]-2-fluorophenyl}-N′-(3-thienylcarbonyl)thiourea], 29%; with `COc1cc2nccc(Oc3ccc(NC(=S)NC(=O)N4c5ccccc5CCc5ccccc54)cc3)c2cc1OC` [Example 1047, N-[10,11-Dihydro-5H-dibenzo(b,f)azepin-5-ylcarbonyl]-N′-{4-[(6,7-dimethoxy-4-quinolyl)oxy]phenyl}thiourea], 7%.
